{
  "source": "ChEMBL document CHEMBL4219142",
  "about": "“Discovery of potent DOT1L inhibitors by AlphaLISA based High Throughput Screening assay” (Bioorg Med Chem, 2018)",
  "key": {"[1]": {"biological_target": "T1, Histone-lysine N-methyltransferase, H3 lysine-79 specific (Homo sapiens, UniProt Q8TEK3)", "assay": "(§1) Inhibition of recombinant human His6-SUMO tagged DOT1L (1 to 416 residues) expressed in Escherichia coli BL21(DE3) at 50 uM using oligonucleosome as substrate pretreated for 15 mins followed by substrate addition measured after 60 mins in presence of [3H]SAM by liquid scintillation counting method relative to control"}, "MV4-11 [2]": {"system": "MV4-11", "assay": "Cell cycle arrest in human MV411 cells assessed as accumulation at S phase at 0.3125 uM after 24 hrs by propidium iodide staining based flow cytometric analysis (reference value: 30.25 to 47.5%)", "format": "functional"}, "MV4-11 [3]": {"system": "MV4-11", "assay": "Induction of apoptosis in human MV411 cells assessed as late apoptotic cells at 0.625 uM after 48 hrs by Annexin-V-FITC/propidium iodide staining based flow cytometric method (reference value: 4.38 to 4.63%)", "format": "functional"}, "MV4-11 [4]": {"system": "MV4-11", "assay": "Cell cycle arrest in human MV411 cells assessed as accumulation at G1 phase after 24 hrs by propidium iodide staining based flow cytometric analysis", "format": "functional"}, "MV4-11 [5]": {"system": "MV4-11", "assay": "Induction of apoptosis in human MV411 cells assessed as early apoptotic cells at 0.3125 uM after 48 hrs by Annexin-V-FITC/propidium iodide staining based flow cytometric method (reference value: 1.15 to […])", "format": "functional"}, "MV4-11 [6]": {"system": "MV4-11", "assay": "Induction of apoptosis in human MV411 cells assessed as viable cells at 1.25 uM after 48 hrs by Annexin-V-FITC/propidium iodide staining based flow cytometric method (reference value: 88.5 to 94.5%)", "format": "functional", "conditions": "MV4-11, 48 h, read-out: Activity"}, "[7]": {"biological_target": "T1, Histone-lysine N-methyltransferase, H3 lysine-79 specific", "assay": "as §1, with “25” for “50”"}, "MV4-11 [8]": {"system": "MV4-11", "assay": "Cell cycle arrest in human MV411 cells assessed as accumulation at G2 phase at 0.3125 uM after 24 hrs by propidium iodide staining based flow cytometric analysis (reference value: 4.19 to 11.88%)", "format": "functional"}, "MV4-11 [9]": {"system": "MV4-11", "assay": "Cell cycle arrest in human MV411 cells assessed as accumulation at G2 phase at 1.25 uM after 24 hrs by propidium iodide staining based flow cytometric analysis (reference value: 4.19 to 11.88%)", "format": "functional"}, "MV4-11 [10]": {"system": "MV4-11", "assay": "Cell cycle arrest in human MV411 cells assessed as accumulation at G1 phase at 0.3125 uM after 24 hrs by propidium iodide staining based flow cytometric analysis (reference value: 40.62 to 65.56%)", "format": "functional"}, "MV4-11 [11]": {"system": "MV4-11", "assay": "Cell cycle arrest in human MV411 cells assessed as accumulation at G1 phase at 1.25 uM after 24 hrs by propidium iodide staining based flow cytometric analysis (reference value: 40.62 to 65.56%)", "format": "functional"}, "MV4-11 [12]": {"system": "MV4-11", "assay": "Induction of apoptosis in human MV411 cells assessed as necrotic cells at 0.3125 uM after 48 hrs by Annexin-V-FITC/propidium iodide staining based flow cytometric method (Rvb <= 0.08%)", "format": "functional"}, "MV4-11 [13]": {"system": "MV4-11", "assay": "Induction of apoptosis in human MV411 cells assessed as necrotic cells at 1.25 uM after 48 hrs by Annexin-V-FITC/propidium iodide staining based flow cytometric method (Rvb <= 0.08%)", "format": "functional"}, "MV4-11 [14]": {"system": "MV4-11", "assay": "Cell cycle arrest in human MV411 cells assessed as accumulation at G2 phase at 0.625 uM after 24 hrs by propidium iodide staining based flow cytometric analysis (reference value: 4.19 to 11.88%)", "format": "functional"}, "MV4-11 [15]": {"system": "MV4-11", "assay": "Induction of apoptosis in human MV411 cells assessed as early apoptotic cells at 0.625 uM after 48 hrs by Annexin-V-FITC/propidium iodide staining based flow cytometric method (reference value: 1.15 to […])", "format": "functional"}, "MV4-11 [16]": {"system": "MV4-11", "assay": "Cell cycle arrest in human MV411 cells assessed as accumulation at S phase at 1.25 uM after 24 hrs by propidium iodide staining based flow cytometric analysis (reference value: 30.25 to 47.5%)", "format": "functional"}, "MV4-11 [17]": {"system": "MV4-11", "assay": "Induction of apoptosis in human MV411 cells assessed as late apoptotic cells at 1.25 uM after 48 hrs by Annexin-V-FITC/propidium iodide staining based flow cytometric method (reference value: 4.38 to 4.63%)", "format": "functional"}, "MV4-11 [18]": {"system": "MV4-11", "assay": "Induction of apoptosis in human MV411 cells assessed as early apoptotic cells at 1.25 uM after 48 hrs by Annexin-V-FITC/propidium iodide staining based flow cytometric method (reference value: 1.15 to […])", "format": "functional"}, "[19]": {"biological_target": "T1, Histone-lysine N-methyltransferase, H3 lysine-79 specific", "assay": "as §1, with “100” for “50”"}, "MV4-11 [20]": {"system": "MV4-11", "assay": "Cell cycle arrest in human MV411 cells assessed as accumulation at S phase at 0.625 uM after 24 hrs by propidium iodide staining based flow cytometric analysis (reference value: 30.25 to 47.5%)", "format": "functional"}, "[21]": {"biological_target": "T1, Histone-lysine N-methyltransferase, H3 lysine-79 specific", "assay": "Binding affinity to recombinant human His6-SUMO tagged DOT1L (1 to 416 residues) expressed in Escherichia coli BL21(DE3) by surface plasmon resonance method"}, "MV4-11 [22]": {"system": "MV4-11", "assay": "Cell cycle arrest in human MV411 cells assessed as accumulation at G1 phase at 0.625 uM after 24 hrs by propidium iodide staining based flow cytometric analysis (reference value: 40.62 to 65.56%)", "format": "functional"}, "MV4-11 [23]": {"system": "MV4-11", "assay": "Induction of apoptosis in human MV411 cells assessed as viable cells at 0.625 uM after 48 hrs by Annexin-V-FITC/propidium iodide staining based flow cytometric method (reference value: 88.5 to 94.5%)", "format": "functional", "conditions": "MV4-11, 48 h, read-out: Activity"}, "MV4-11 [24]": {"system": "MV4-11", "assay": "Antiproliferative activity against human MV411 cells after 72 hrs by Alamar blue assay", "format": "functional, cell-based", "conditions": "MV4-11, 72 h"}, "MV4-11 [25]": {"system": "MV4-11", "assay": "Induction of apoptosis in human MV411 cells assessed as viable cells at 0.3125 uM after 48 hrs by Annexin-V-FITC/propidium iodide staining based flow cytometric method (reference value: 88.5 to 94.5%)", "format": "functional", "conditions": "MV4-11, 48 h, read-out: Activity"}, "[26]": {"biological_target": "T1, Histone-lysine N-methyltransferase, H3 lysine-79 specific", "assay": "Inhibition of recombinant human His6-SUMO tagged DOT1L (1 to 416 residues) expressed in Escherichia coli BL21(DE3) using oligonucleosome as substrate pretreated for 15 mins followed by substrate addition measured after 60 mins in presence of [3H]SAM by liquid scintillation counting method"}, "MV4-11 [27]": {"system": "MV4-11", "assay": "Induction of apoptosis in human MV411 cells assessed as late apoptotic cells at 0.3125 uM after 48 hrs by Annexin-V-FITC/propidium iodide staining based flow cytometric method (reference value: 4.38 to 4.63%)", "format": "functional"}, "MV4-11 [28]": {"system": "MV4-11", "assay": "Induction of apoptosis in human MV411 cells assessed as necrotic cells at 0.625 uM after 48 hrs by Annexin-V-FITC/propidium iodide staining based flow cytometric method (Rvb <= 0.08%)", "format": "functional"}},
  "data": [
    {"compound": "COc1ccccc1-c1nnc2sc(/C=C/c3ccco3)nn12", "values": [
      {"measurement": "inhibition", "setting": "[1]", "result": 75, "unit": "%"},
      {"measurement": "Activity", "setting": "MV4-11 [2]", "result": 37.51, "unit": "%"},
      {"measurement": "Activity", "setting": "MV4-11 [3]", "result": 35.3, "unit": "%"},
      {"measurement": "Activity", "setting": "MV4-11 [4]", "result": "Dose-dependent effect"},
      {"measurement": "Activity", "setting": "MV4-11 [5]", "result": 13.7, "unit": "%"},
      {"measurement": "viability at 1.25 µM", "setting": "MV4-11 [6]", "result": 9.46, "unit": "%"},
      {"measurement": "inhibition", "setting": "[7]", "result": 62, "unit": "%"},
      {"measurement": "Activity", "setting": "MV4-11 [8]", "result": 16.17, "unit": "%"},
      {"measurement": "Activity", "setting": "MV4-11 [9]", "result": 23.18, "unit": "%"},
      {"measurement": "Activity", "setting": "MV4-11 [10]", "result": 46.31, "unit": "%"},
      {"measurement": "Activity", "setting": "MV4-11 [11]", "result": 58.01, "unit": "%"},
      {"measurement": "Activity", "setting": "MV4-11 [12]", "result": 0.72, "unit": "%"},
      {"measurement": "Activity", "setting": "MV4-11 [13]", "result": 0.91, "unit": "%"},
      {"measurement": "Activity", "setting": "MV4-11 [14]", "result": 10.59, "unit": "%"},
      {"measurement": "Activity", "setting": "MV4-11 [15]", "result": 33.2, "unit": "%"},
      {"measurement": "Activity", "setting": "MV4-11 [16]", "result": 18.51, "unit": "%"},
      {"measurement": "Activity", "setting": "MV4-11 [17]", "result": 45.5, "unit": "%"},
      {"measurement": "Activity", "setting": "MV4-11 [18]", "result": 44.1, "unit": "%"},
      {"measurement": "inhibition", "setting": "[19]", "result": 78, "unit": "%"},
      {"measurement": "Activity", "setting": "MV4-11 [20]", "result": 32.19, "unit": "%"},
      {"measurement": "Kd", "setting": "[21]", "result": 7.08, "unit": "µM"},
      {"measurement": "Activity", "setting": "MV4-11 [22]", "result": 57.22, "unit": "%"},
      {"measurement": "viability at 0.625 µM", "setting": "MV4-11 [23]", "result": 30.4, "unit": "%"},
      {"measurement": "IC50", "setting": "MV4-11 [24]", "result": 1.07, "unit": "µM"},
      {"measurement": "viability at 0.3125 µM", "setting": "MV4-11 [25]", "result": 73.6, "unit": "%"},
      {"measurement": "IC50", "setting": "[26]", "result": 9.7, "unit": "µM"},
      {"measurement": "Activity", "setting": "MV4-11 [27]", "result": 12, "unit": "%"},
      {"measurement": "Activity", "setting": "MV4-11 [28]", "result": 1.11, "unit": "%"}
    ]}
  ]
}
